Assay results as given in patent US4623662A, “Antiatherosclerotic ureas and thioureas” (American Cyanamid Company, priority 1985, dated 1986).
Read-outs that look alike come from different tables or passages of the source.

Tests used:
cholesterol absorption = test: Inhibition of cholesterol absorption in rats fed 1% cholesterol:0.5% cholic acid diet; format: in vivo, male Sprague-Dawley rats; details: po, 336 h, rat, 2 weeks; for response vs control in vivo at 0.03 %: dose .03% of the diet; for response vs control in vivo at 0.01 %: dose .01% of the diet
How it was run: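 Male Sprague-Dawley rats (150-170 g) fed 1% cholesterol:0.5% cholic acid diet for 2 weeks with compound at 0.001, 0.003, 0.01 or 0.03% of diet. Serum cholesterol measured enzymatically; liver cholesterol from saponified large-lobe sample after petroleum ether extraction. Liver and serum sterol expressed as percent of untreated controls.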

[1] = target: T1, fatty acyl CoA: cholesterol acyl transferase (ACAT) (Rattus norvegicus, UniProt O70536); test: Inhibition of fatty acyl CoA:cholesterol acyl transferase (ACAT), rat adrenal enzyme; format: biochemical; details: for IC50: several concentrations
T1 construct: The supernatant, containing the microsomal fraction, served as the source of the cholesterol-esterifying enzyme; from tissue; host or cells: rat adrenals, supernatant of 1,000 x g centrifugation containing the microsomal fraction
T1 sequence (O70536 1-545): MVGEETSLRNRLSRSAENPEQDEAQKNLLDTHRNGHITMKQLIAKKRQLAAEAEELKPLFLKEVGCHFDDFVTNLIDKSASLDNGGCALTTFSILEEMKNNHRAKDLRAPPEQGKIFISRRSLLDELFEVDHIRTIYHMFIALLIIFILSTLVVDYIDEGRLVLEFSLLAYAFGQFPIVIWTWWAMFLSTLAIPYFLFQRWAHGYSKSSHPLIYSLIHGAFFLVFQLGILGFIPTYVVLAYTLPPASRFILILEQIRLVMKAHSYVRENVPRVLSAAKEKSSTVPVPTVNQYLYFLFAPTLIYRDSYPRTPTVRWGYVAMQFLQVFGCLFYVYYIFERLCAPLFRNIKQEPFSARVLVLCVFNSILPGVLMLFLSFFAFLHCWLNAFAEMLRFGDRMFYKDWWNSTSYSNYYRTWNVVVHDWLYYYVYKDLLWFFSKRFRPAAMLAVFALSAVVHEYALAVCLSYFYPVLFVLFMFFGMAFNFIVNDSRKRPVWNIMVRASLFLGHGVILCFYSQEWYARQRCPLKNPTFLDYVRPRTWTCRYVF
How it was run: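 Enzyme source was the microsomal supernatant of rat adrenal homogenate (0.2M potassium phosphate, pH 7.4) with BSA, preincubated with compound (5.2 μg/ml final for single-point) for 10 min at 37° C. Then [14C]oleoyl CoA added, 10 min at 37° C. TLC-separated cholesteryl ester was counted; percent inhibition versus control, IC50 from several concentrations.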

[2] = read-out: LS (liver sterol), percentage of control values
[3] = read-out: SS (serum sterol), percentage of control values
[4] = rat adrenal ACAT, final concentration 5.2 μg/ml, read-out: % Inhibition

SMILES	inhibition at 5.2 µg/mL [1, 4]	IC50 ([1]; rat adrenal ACAT)	response vs control in vivo at 0.03 % (cholesterol absorption; [2])	response vs control in vivo at 0.03 % (cholesterol absorption; [3])	inhibition at 5.2 µg/mL [1]	response vs control in vivo at 0.01 % (cholesterol absorption; [2])	response vs control in vivo at 0.01 % (cholesterol absorption; [3])
CCCCCCCN(Cc1ccc(CCCC)cc1)C(=O)Nc1cc(C)c(C)cc1C [1-(n-Heptyl)-1-(4-n-butylbenzyl)-3-(2,4,5-trimethylphenyl)urea]	95.3%		10%	33%			
CCCCCCCN(Cc1ccc(CCCC)cc1)C(=O)Nc1c(Cl)cc(Cl)cc1Cl [1-(n-Heptyl)-1-(4-n-butylbenzyl)-3-(2,4,6-trichlorophenyl)urea]			8%	28%	90%		
CCCCCCCN(Cc1ccc(CCCC)cc1)C(=O)Nc1ccc(Cl)cc1Cl [1-(n-Heptyl)-1-(4-n-butylbenzyl)-3-(2,4-dichlorophenyl)urea]	80%		50%	58%			
CCCCCCCN(Cc1ccc(CCCC)cc1)C(=O)Nc1ccc(C)cc1C [1-(n-Heptyl)-1-(4-n-butylbenzyl)-3-(2,4-dimethylphenyl)urea]	94.8%		14%	46%			
CCCCCCCN(Cc1ccc(CCCC)cc1)C(=O)Nc1ccc(Cl)cc1C [1-(n-Heptyl)-1-(4-n-butylbenzyl)-3-(2-methyl-4-chlorophenyl)urea]	92.5%		16%	35%			
CCCCCCCN(Cc1ccc(CCCC)cc1)C(=O)Nc1ccccc1C [1-(n-Heptyl)-1-(4-n-butylbenzyl)-3-(2-methylphenyl)urea]	97.4%		29%	35%			
CCCCCCCN(Cc1ccc(CCCC)cc1)C(=O)Nc1ccc(Cl)cc1C(F)(F)F [1-(n-Heptyl)-1-(4-n-butylbenzyl)-3-(2-trifluoromethyl-4-chlorophenyl)urea]			47%	63%	90%		
CCCCCCCN(Cc1ccc(CCCC)cc1)C(=O)Nc1cccc(C)c1 [1-(n-Heptyl)-1-(4-n-butylbenzyl)-3-(3-methylphenyl)urea]	93.8%		42%	49%			
CCCCCCCN(Cc1ccc(CCCC)cc1)C(=O)Nc1ccc(C(=O)OCC)cc1 [1-(n-Heptyl)-1-(4-n-butylbenzyl)-3-(4-carboethoxyphenyl)urea]	92.4%		84%	88%			
CCCCCCCN(Cc1ccc(CCCC(=O)OCC)cc1)C(=O)Nc1c(C)cc(Cl)cc1C [1-(n-Heptyl)-1-[4-(3-carboethoxypropyl)benzyl]-3-(4-chloro-2,6-dimethylphenyl)urea]		1.08 µM				65%	55%
CCCCCCCN(Cc1ccc(CCCC)cc1)C(=O)Nc1cc(C)c(Cl)cc1C [1-(n-Heptyl)-1-[4-(n-butyl)benzyl]-3-(4-chloro-2,5-dimethylphenyl)urea]			19%	48%	90%		
CCCCCCCN(Cc1ccc(CCCC)cc1)C(=O)Nc1c(C)cc(Cl)cc1C [1-(n-Heptyl)-1-[4-(n-butyl)benzyl]-3-(4-chloro-2,6-dimethylphenyl)urea]			11%	31%	90%		
CCCCCCCN(Cc1ccc(OCCCC)cc1)C(=O)Nc1ccc(Cl)cc1Cl [1-(n-Heptyl)-(4-n-butoxybenzyl)-3-(2,4-dichlorophenyl)urea]	79.9%		50%	68%			
CCCCCCCN(Cc1ccc(OCCCC)cc1)C(=O)Nc1ccc(Cl)cc1C(F)(F)F [1-(n-Heptyl)-(4-n-butoxybenzyl)-3-(2-trifluoromethyl-4-chlorophenyl)urea]	89.4%		35%	59%			
CCCCOc1ccc(CN(Cc2ccccc2)C(=O)Nc2c(Cl)cc(Cl)cc2Cl)cc1 [1-Benzyl-1-(4-n-butoxybenzyl)-3-(2,4,6-trichlorophenyl)urea]	95.2%		8%	40%			
CCCCOc1ccc(CN(Cc2ccccc2)C(=O)Nc2ccc(Cl)cc2Cl)cc1 [1-Benzyl-1-(4-n-butoxybenzyl)-3-(2,4-dichlorophenyl)urea]	80%		49%	53%			
CCCCOc1ccc(CN(Cc2ccccc2)C(=O)Nc2ccc(F)cc2F)cc1 [1-Benzyl-1-(4-n-butoxybenzyl)-3-(2,4-difluorophenyl)urea]	88%		22%	53%			
CCCCOc1ccc(CN(Cc2ccccc2)C(=O)Nc2ccc(Cl)cc2C(F)(F)F)cc1 [1-Benzyl-1-(4-n-butoxybenzyl)-3-(2-trifluoromethyl-4-chlorophenyl)urea]	85%		31%	58%			

Further lines, with some results ahead:

inhibition at 5.2 µg/mL [1, 4]	IC50 ([1]; rat adrenal ACAT)	SMILES	response vs control in vivo at 0.03 % (cholesterol absorption; [2])	response vs control in vivo at 0.03 % (cholesterol absorption; [3])	inhibition at 5.2 µg/mL [1]	response vs control in vivo at 0.01 % (cholesterol absorption; [2])	response vs control in vivo at 0.01 % (cholesterol absorption; [3])
	0.11 µM	CCCCCCCN(Cc1ccc(CCCCCl)cc1)C(=O)Nc1c(C)cc(Cl)cc1C [1-(n-Heptyl)-1-[4-(4-chlorobutyl)benzyl]-3-(4-chloro-2,6-dimethylphenyl)urea]	18%	19%			
	0.82 µM	CCCCCCCN(Cc1ccc(CCCCO)cc1)C(=O)Nc1c(C)cc(Cl)cc1C [1-(n-Heptyl)-1-[4-(4-hydroxybutyl)benzyl]-3-(4-chloro-2,6-dimethylphenyl)urea]				26%	24%
	2.4 µM	CCCCCCCN(Cc1ccc(CCC(C)C)cc1)C(=O)Nc1ccc(Cl)cc1C [1-(n-Heptyl)-1-[4-(4-isopentyl)benzyl]-3-(4-chloro-2-methylphenyl)urea]				17%	20%
	1.84 µM	CCCCCCCN(Cc1ccc(CC(C)C)cc1)C(=O)Nc1ccc(Cl)cc1C [1-(n-Heptyl)-1-[4-(isobutyl)benzyl]-3-(4-chloro-2-methylphenyl)urea]				56%	62%
	0.13 µM	CCCCCCCN(Cc1ccc(CCC(C)C)cc1)C(=O)Nc1c(C)cc(Cl)cc1C [1-(n-Heptyl)-1-[4-(isopentyl)benzyl]-3-(4-chloro-2,6-dimethylphenyl)urea]				10%	17%
	0.35 µM	CCCCCCCN(Cc1ccc(C(C)C)cc1)C(=O)Nc1c(F)cc(F)cc1F [1-(n-Heptyl)-1-[4-(isopropyl)benzyl]-3-(2,4,6-trifluorophenyl)urea]				23%	40%
	1.17 µM	CCCCCCCN(Cc1ccc(C(C)C)cc1)C(=O)Nc1ccc(F)cc1F [1-(n-Heptyl)-1-[4-(isopropyl)benzyl]-3-(2,4-difluorophenyl)urea]				64%	77%
	0.2 µM	CCCCCCCN(Cc1ccc(C(C)C)cc1)C(=O)Nc1c(C)cc(Cl)cc1C [1-(n-Heptyl)-1-[4-(isopropyl)benzyl]-3-(4-chloro-2,6-dimethylphenyl)urea]				20%	35%
	1.74 µM	CCCCCCCN(Cc1ccc(C(C)C)cc1)C(=O)Nc1ccc(Cl)cc1C [1-(n-Heptyl)-1-[4-(isopropyl)benzyl]-3-(4-chloro-2-methylphenyl)urea]				75%	60%
95%		Cc1ccc(NC(=O)N(Cc2ccccc2)C(Cc2ccccc2)c2ccccc2)c(C)c1 (stereo not drawn) [1-Benzyl-1-(1,2-diphenylethyl)-3-(2,4-dimethylphenyl)urea]	63%	52%			
95.8%		CCCCOc1ccc(CN(Cc2ccccc2)C(=O)Nc2cc(C)c(C)cc2C)cc1 [1-Benzyl-1-(4-butyloxybenzyl)-3-(2,4,5-trimethylphenyl)urea]	12%	43%			
91.7%		CCCCOc1ccc(CN(Cc2ccccc2)C(=O)Nc2ccc(C)cc2C)cc1 [1-Benzyl-1-(4-butyloxybenzyl)-3-(2,4-dimethylphenyl)urea]	15%	48%			
